# Test results from ChEMBL document CHEMBL1201862, “PubChem BioAssay data set” (2004).
#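 Step 1: Grow cells in 96-well plates. Step 2: Expose to compound for 48 hours at 5 concentrations. Step 3: Interpolate endpoints linearly; if unreached, use highest concentration. GI50 is the concentration that inhibits growth by half.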 Calls of active or inactive are those of the source. No stated cut-off is given here; in the data, active = GI50 up to about 1.1 µM and inactive = higher.
# Columns and labels:
# Test in all cases: NCI anticancer screen, dose series, 48 h
# IGROV-1 = tested on: IGROV-1
# MDA-MB-231 = tested on: MDA-MB-231
# HCT-15 = tested on: HCT-15
# MDA-MB-435 = tested on: MDA-MB-435
# MCF7 = tested on: MCF7
# OVCAR-4 = tested on: OVCAR-4
# RXF 393 = tested on: RXF 393
# NCI-H460 = tested on: NCI-H460
# OVCAR-5 = tested on: OVCAR-5
# HL-60 = tested on: HL-60
# K562 = tested on: K562
# CAKI-1 = tested on: CAKI-1
# SK-MEL-5 = tested on: SK-MEL-5
# HCC 2998 = tested on: HCC 2998
# UO-31 = tested on: UO-31
# Malme-3M = tested on: Malme-3M
# COLO 205 = tested on: COLO 205
# T47D = tested on: T47D
# A498 = tested on: A498
# SR = tested on: SR
Compound,GI50 (IGROV-1),GI50 (MDA-MB-231),GI50 (HCT-15) [µM],GI50 (MDA-MB-435),GI50 (MCF7),GI50 (OVCAR-4),GI50 (RXF 393),GI50 (NCI-H460),GI50 (OVCAR-5),GI50 (HL-60),GI50 (K562),GI50 (CAKI-1),GI50 (SK-MEL-5),GI50 (HCC 2998),GI50 (UO-31),GI50 (Malme-3M),GI50 (COLO 205),GI50 (T47D),GI50 (A498),GI50 (SR)
O=C(NCc1ccccc1)c1nn[nH]c1O,> 100 µM (inactive),> 100 µM (inactive),> 100,> 100 µM (inactive),> 100 µM (inactive),> 100 µM (inactive),> 100 µM (inactive),> 100 µM (inactive),> 100 µM (inactive),> 100 µM (inactive),> 100 µM (inactive),> 100 µM (inactive),> 100 µM (inactive),> 100 µM (inactive),> 100 µM (inactive),> 100 µM (inactive),> 100 µM (inactive),> 100 µM (inactive),,
CC(=N/NC(=S)N1CCCCC1)/C(C)=N\NC(=S)N1CCCCC1,1.58 µM (inactive),2 µM (inactive),2.34,1.87 µM (inactive),1.91 µM (inactive),1.74 µM (inactive),1.59 µM (inactive),1.74 µM (inactive),1.78 µM (inactive),,2.25 µM (inactive),1.71 µM (inactive),1.57 µM (inactive),2.12 µM (inactive),1.59 µM (inactive),2.08 µM (inactive),1.95 µM (inactive),1.54 µM (inactive),1.5 µM (inactive),
O=C(CSc1nc2nncc-2c(O)[nH]1)c1ccc(Cl)cc1,> 100 µM (inactive),> 100 µM (inactive),93.8,> 100 µM (inactive),> 100 µM (inactive),> 100 µM (inactive),> 100 µM (inactive),> 100 µM (inactive),> 100 µM (inactive),,> 100 µM (inactive),> 100 µM (inactive),> 100 µM (inactive),> 100 µM (inactive),> 100 µM (inactive),> 100 µM (inactive),> 100 µM (inactive),> 100 µM (inactive),,> 100 µM (inactive)
O=C(Nc1sccc1S(=O)(=O)c1ccc(Cl)cc1)C(F)(F)F,32.1 µM (inactive),13.7 µM (inactive),29.5,39.1 µM (inactive),28.8 µM (inactive),33.7 µM (inactive),,27.4 µM (inactive),48.4 µM (inactive),,11.5 µM (inactive),24.9 µM (inactive),16 µM (inactive),22.9 µM (inactive),25.1 µM (inactive),27.2 µM (inactive),17.1 µM (inactive),6.43 µM (inactive),33.9 µM (inactive),22.8 µM (inactive)
c1ccc2c(c1)SCCCSCCCS2,> 100 µM (inactive),65.3 µM (inactive),> 100,> 100 µM (inactive),> 100 µM (inactive),76 µM (inactive),,> 100 µM (inactive),> 100 µM (inactive),28.1 µM (inactive),> 100 µM (inactive),,> 100 µM (inactive),> 100 µM (inactive),,,74.5 µM (inactive),> 100 µM (inactive),,50.5 µM (inactive)
O=c1c2ccccc2[nH]c(=S)n1-c1ccc(/N=N/c2cccc3c(O)cccc23)cc1,55.3 µM (inactive),53.3 µM (inactive),38.5,23 µM (inactive),13.5 µM (inactive),> 100 µM (inactive),> 100 µM (inactive),> 100 µM (inactive),76.7 µM (inactive),54.8 µM (inactive),36.2 µM (inactive),> 100 µM (inactive),24.9 µM (inactive),> 100 µM (inactive),> 100 µM (inactive),88.9 µM (inactive),32 µM (inactive),> 100 µM (inactive),,74.5 µM (inactive)
Cc1ccc(CC2(C(=O)O)Cc3ccc(C)cc3C2)cc1 (stereo unspecified),> 100 µM (inactive),89.1 µM (inactive),54,> 100 µM (inactive),> 100 µM (inactive),> 100 µM (inactive),,> 100 µM (inactive),> 100 µM (inactive),> 100 µM (inactive),61.7 µM (inactive),> 100 µM (inactive),> 100 µM (inactive),> 100 µM (inactive),> 100 µM (inactive),> 100 µM (inactive),84.3 µM (inactive),> 100 µM (inactive),> 100 µM (inactive),> 100 µM (inactive)
CC(=O)/C(=C/N1CC(=O)NC1=S)C(=O)Nc1ccccc1C,> 100 µM (inactive),> 100 µM (inactive),> 100,> 100 µM (inactive),,> 100 µM (inactive),> 100 µM (inactive),> 100 µM (inactive),> 100 µM (inactive),> 100 µM (inactive),,> 100 µM (inactive),> 100 µM (inactive),> 100 µM (inactive),> 100 µM (inactive),,> 100 µM (inactive),> 100 µM (inactive),> 100 µM (inactive),
